In patent US10544095B2 (Pfizer Inc., priority 2015, dated 2020):

Legend:
[1] = target: hTDO2 in human glioblastoma A172 cells (Homo sapiens (Human), UniProt P48775); experiment: Cellular assay for TDO2 activity determination in A172 cells; type: cell-based; conditions: overnight incubation, kynurenine absorbance at 480 nm
Outline: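 Glioblastoma A172 cells with endogenous hTDO2, 1.25×10^4 cells/well, incubated overnight at 37° C. with ten serial compound concentrations in IMDM with 2% FBS. Supernatant kynurenine, after TCA precipitation and 4-(dimethylamino)-benzaldehyde reaction, read at 480 nm against kynurenine standard curve; data curve-fitted.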

[2] = target: human recombinant TDO2 enzyme (Homo sapiens (Human), UniProt P48775); experiment: Assay for TDO2 enzymatic activity determination; type: biochemical; conditions: human recombinant TDO2, L-Trp 1 mM, kynurenine absorbance at 480 nm
Description: The compounds of formula I, its subformulae, and enantiomers, salts and solvates thereof, are useful to inhibit the enzymatic activity of human TDO2. To measure the TDO2 activity, the procedure described in Dolusic et al. J. Med. Chem.; 2011, 54, […] was adapted: the reaction mixture contained (final concentrations) potassium phosphate buffer (50 mM, pH 7.5), ascorbic acid ([…]), methylene blue (0.125 μM), catalase (40 units/mL, from bovine liver, Sigma), and human recombinant TDO2 enzyme (prepared as described in Dolusic et al. J. Med. Chem.; 2011, 54, 5320-5334; 0.9 μg) without or with the compounds of the present invention at the indicated concentrations (total volume 112.5 μL). The reaction was initiated by the addition of 37.5 μL of L-Trp (final concentration 1 mM) at room temperature. The reaction was conducted at room temperature during one hour and stopped by the addition of 30 μL of 30% (w/v) trichloroacetic acid. To convert N-formylkynurenine into kynurenine, the reaction mixture was incubated at 65° C. for 30 min. […] Kynurenine concentrations were determined by measuring the absorbance at 480 nm. A standard curve was made with pure kynurenine. The TDO activity was measured as described above using ten serial concentrations of the compounds of the present invention. Data were fitted using the Prism™ software (GraphPad Software, Inc.) using standard parameters.

Sequence of human recombinant TDO2 enzyme (P48775 whole entry): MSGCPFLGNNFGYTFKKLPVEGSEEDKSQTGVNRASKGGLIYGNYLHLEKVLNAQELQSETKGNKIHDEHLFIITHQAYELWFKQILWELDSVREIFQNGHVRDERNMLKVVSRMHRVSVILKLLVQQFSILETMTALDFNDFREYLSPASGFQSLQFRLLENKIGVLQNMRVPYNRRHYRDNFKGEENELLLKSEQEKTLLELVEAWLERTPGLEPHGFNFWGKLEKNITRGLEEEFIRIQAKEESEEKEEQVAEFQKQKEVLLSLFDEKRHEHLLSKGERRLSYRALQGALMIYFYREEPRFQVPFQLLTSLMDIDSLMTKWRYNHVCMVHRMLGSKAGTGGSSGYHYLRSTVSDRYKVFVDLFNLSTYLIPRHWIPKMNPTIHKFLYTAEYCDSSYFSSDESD
Sequence of hTDO2 in human glioblastoma A172 cells (P48775 whole entry): as above

IC50 [1] | IC50 [2] | Compound
0.095 µM | 0.89 µM | NCCNS(=O)(=O)c1ccc(-c2c[nH]c3cc(F)ccc23)cc1 [Example 8, N-(2-aminoethyl)-4-(6-fluoro-1H-indol-3-yl)-benzenesulfonamide]
0.24 µM | 1.8 µM | NCCNS(=O)(=O)c1cccc(-c2c[nH]c3cc(F)ccc23)c1 [Example 9, N-(2-aminoethyl)-3-(6-fluoro-1H-indol-3-yl)benzenesulfonamide]
0.083 µM | 2.4 µM | NS(=O)(=O)c1cccc(-c2c[nH]c3cc(F)ccc23)c1 [Example 10, 3-(6-fluoro-1H-indol-3-yl)benzenesulfonamide]
0.12 µM | 0.74 µM | CS(=O)(=O)NCCNS(=O)(=O)c1ccc(-c2c[nH]c3cc(F)ccc23)cc1 [Example 21, 4-(6-fluoro-1H-indol-3-yl)-N-(2-(methylsulfonamido)-ethyl)benzenesulfonamide]
0.11 µM | 0.73 µM | NC(=O)CCNS(=O)(=O)c1ccc(-c2c[nH]c3cc(F)ccc23)cc1 [Example 26, 3-(4-(6-fluoro-1H-indol-3-yl)phenylsulfonamido)propanamide]
0.17 µM | 0.73 µM | N#Cc1cc(-c2c[nH]c3cc(F)ccc23)ccc1S(=O)(=O)N1CCNCC1 [Example 32, 5-(6-Fluoro-1H-indol-3-yl)-2-(piperazine-1-sulfonyl)-benzonitrile]
0.29 µM | 0.52 µM | Cc1cc(-c2c[nH]c3cc(F)ccc23)ccc1S(=O)(=O)N1CCNCC1 [Example 34, 6-fluoro-3-(3-methyl-4-(piperazin-1-ylsulfonyl)-phenyl)-1H-indole]
0.33 µM | 0.42 µM | O=S(=O)(c1ccc(-c2c[nH]c3cc(F)ccc23)cc1O)N1CCNCC1 [Example 35, 5-(6-fluoro-1H-indol-3-yl)-2-(piperazin-1-ylsulfonyl)phenol]
0.43 µM | 0.77 µM | NCCNS(=O)(=O)c1cc(-c2c[nH]c3cc(F)ccc23)ccc1Cl [Example 36, N-(2-aminoethyl)-2-chloro-5-(6-fluoro-1H-indol-3-yl)-benzenesulfonamide]
0.17 µM | 0.93 µM | O=C1CN(S(=O)(=O)c2ccc(-c3c[nH]c4cc(F)ccc34)cc2)CCN1 [Example 40, 4-((4-(6-fluoro-1H-indol-3-yl)phenyl)sulfonyl)piperazin-2-one]
0.11 µM | 0.96 µM | CNC(=O)CCNS(=O)(=O)c1ccc(-c2c[nH]c3cc(F)ccc23)cc1 [Example 50, 3-(4-(6-fluoro-1H-indol-3-yl)phenylsulfonamido)-N-methylpropanamide]
0.13 µM | 0.53 µM | O=S(=O)(c1ccc(-c2c[nH]c3cc(F)ccc23)cc1)N1C[C@@H](O)[C@@H](O)C1 [Example 58, (cis)-1-((4-(6-fluoro-1H-indol-3-yl)phenyl)sulfonyl)-pyrrolidine-3,4-diol]
0.833 µM | 0.47 µM | O=S(=O)(c1c(Cl)cc(-c2c[nH]c3cc(F)ccc23)cc1Cl)N1CCNCC1 [Example 76, 3-(3,5-dichloro-4-(piperazin-1-ylsulfonyl)phenyl)-6-fluoro-1H-indole]
0.055 µM | 0.17 µM | O=S(=O)(c1ccc(-c2c[nH]c3cc(F)ccc23)cc1)N1CC[C@@H](O)C1 [Example 77, (R)-1-((4-(6-fluoro-1H-indol-3-yl)phenyl)sulfonyl)-pyrrolidin-3-ol]
0.094 µM | 0.12 µM | O=S(=O)(c1ccc(-c2c[nH]c3cc(F)ccc23)cc1)N1CC[C@H](O)C1 [Example 79, (S)-1-((4-(6-fluoro-1H-indol-3-yl)phenyl)sulfonyl)-pyrrolidin-3-ol]
0.17 µM | 0.9 µM | N[C@H]1CN(S(=O)(=O)c2ccc(-c3c[nH]c4cc(F)ccc34)cc2)C[C@@H]1F [Example 80, (3S,4 S)-4-fluoro-1-{[4-(6-fluoro-1H-indol-3-yl)phenyl]sulfonyl}pyrrolidin-3-amine]
